Test results as given in US9999650B2, “Peptide and peptidomimetic inhibitors” (Ra Pharmaceuticals, Inc., priority 2012, dated 2018).
pIC50: −log10 of the molar value. Numbered stars: 1 amine (or outer) side, 2 acyl side, 3 side chain; on linkers, the order of the positions; unused ones are H or OH. Bridge positions count the residues as written; N and C are the ends. Square brackets hold non-standard residues; d marks the D form. Peptide text beside a SMILES is read from it. X9 = O=C(C[C@H](C(=O)[*:2])C1CCCCC1)[C@@H]1CCCN1[*:1]; Trp(5-Cl) = N[C@@H](Cc1c[nH]c2ccc(Cl)cc12)C(=O)O; X6 = Nc1ccc(CCC(N[*:1])C(=O)[*:2])cn1; mXylylene = c1cc(C[*:1])cc(C[*:2])c1; NMeY = CN[C@@H](Cc1ccc(O)cc1)C(=O)O; NMeI = CC[C@H](C)[C@H](NC)C(=O)O; X2 = O=C(Cc1cccc(C[*:2])c1)[*:1]; dPhg = N[C@@H](C(=O)O)c1ccccc1; Chg = N[C@H](C(=O)O)C1CCCCC1; Tle = CC(C)(C)[C@H](N)C(=O)O; Mpa = O=C(O)CCS; Sar = CNCC(=O)O

Target: T1, human plasma kallikrein (Homo sapiens, UniProt P03952)
T1 construct: purchased Enzyme Research Laboratories HPKa 1303
Test: Enzyme inhibition assay (fluorogenic substrate H-Pro-Phe-Arg-AMC)
Format: biochemical
Details: Kallikrein inhibitory activity; 1 nM activated human kallikrein, 500 μM H-Pro-Phe-Arg-AMC, 1 hour room temperature; read-out: Avg. IC50
Method in brief: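 Activated enzyme (1 nM final) was preincubated 5 min at room temperature with peptides in 10-point 8-fold dilutions. The buffer was 50 mM Tris-HCl pH 7.2, 150 mM NaCl, 10 mM CaCl2, 0.05% Brij-35. After 1 h at room temperature with 500 μM substrate (final), fluorescence was read at 360/460 nm to derive IC50.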

T1 sequence (P03952 20-390 limits assumed): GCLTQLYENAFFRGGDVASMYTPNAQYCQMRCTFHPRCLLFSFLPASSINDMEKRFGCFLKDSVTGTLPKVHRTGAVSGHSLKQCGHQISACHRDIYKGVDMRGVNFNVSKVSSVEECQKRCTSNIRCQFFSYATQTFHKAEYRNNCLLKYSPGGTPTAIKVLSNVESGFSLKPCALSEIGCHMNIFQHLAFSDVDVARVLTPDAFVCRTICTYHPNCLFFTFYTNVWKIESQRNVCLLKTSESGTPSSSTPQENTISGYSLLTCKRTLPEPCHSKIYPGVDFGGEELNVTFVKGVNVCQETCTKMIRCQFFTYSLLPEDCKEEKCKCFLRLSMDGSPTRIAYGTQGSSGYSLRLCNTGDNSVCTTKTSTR
T1 sequence (P03952 391-638 limits assumed): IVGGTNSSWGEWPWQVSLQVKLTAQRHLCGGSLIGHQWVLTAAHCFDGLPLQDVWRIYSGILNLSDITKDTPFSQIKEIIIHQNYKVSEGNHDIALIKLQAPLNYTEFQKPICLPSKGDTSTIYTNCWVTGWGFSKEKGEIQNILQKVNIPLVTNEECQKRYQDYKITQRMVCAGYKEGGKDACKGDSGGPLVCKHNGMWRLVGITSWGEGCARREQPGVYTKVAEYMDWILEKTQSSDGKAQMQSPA

Compound | pIC50
CC(=O)N[C@@H](CS)C(=O)N[C@@H](CC(N)=O)C(=O)N(C)[C@@H](Cc1ccc(O)cc1)C(=O)N[C@@H](Cc1c[nH]c2ccccc12)C(=O)N[C@@H](CO)C(=O)N1CCC[C@H]1C(=O)N[C@@H](Cc1c[nH]c2ccccc12)C(=O)N[C@H](C(=O)N[C@@H](C)C(=O)N[C@@H](CS)C(N)=O)[C@@H](C)O [Compound R2239, Ac-CN-nMeY-WSPWTAC-NH2] (Ac-CN[NMeY]WSPWTAC-NH2) | < 4.90
CC(C)(C)[C@H](NC(=O)[C@H](CCCNC(=N)N)NC(=O)[C@@H]1CCCn2cc(nn2)CCCCCC(=O)N2CCC[C@H]2C(=O)N[C@@H](C2CCCCC2)C(=O)N1)C(N)=O [Compound R2250] | < 4.00
CC(C)(C)[C@H](NC(=O)[C@H](Cc1c[nH]c2ccc(Cl)cc12)NC(=O)[C@@H]1CSCc2cccc(c2)CSCCC(=O)N2CCC[C@H]2C(=O)N[C@H](c2ccccc2)C(=O)N1)C(N)=O [Compound R2210, [mXylyl(1,4)](des-NH2)C-P-(D-Phg)-C-5-C1-Trp-Tbg-NH2] ([Mpa]P[dPhg]C[Trp(5-Cl)][Tle]-NH2; linker 1-4 via mXylylene) | < 4.12
CC(=O)N[C@@H](CS)C(=O)N[C@@H](CC(N)=O)C(=O)N[C@@H](Cc1ccc(O)cc1)C(=O)N[C@@H](Cc1c[nH]c2ccccc12)C(=O)N[C@@H](CO)C(=O)N1CCC[C@H]1C(=O)N[C@H](Cc1c[nH]c2ccccc12)C(=O)N[C@H](C(=O)N[C@@H](C)C(=O)N[C@@H](CS)C(N)=O)[C@@H](C)O [Compound R2228, Ac-CNYWSPwTAC-NH2] (Ac-CNYWSP[dW]TAC-NH2) | < 4.97
Ac-WSPWTECSA-NH2 [Compound R2119, Ac-WSPWTECSA-NH2] | < 4.00

Next, values leading:

pIC50 | Compound
6.42 | CN1CC(=O)N2CCC[C@H]2C(=O)N[C@@H](C2CCCCC2)C(=O)N[C@H](C(=O)N[C@@H](CCCNC(=N)N)C(=O)N[C@H](C(N)=O)C(C)(C)C)CSCc2cccc(c2)CC1=O [Compound R2257] ([Sar]P[Chg]CR[Tle]-NH2; linker N-4 via X2)
7.59 | CC[C@H](C)[C@H]1C(=O)N[C@H](C(=O)N[C@@H](CCCNC(=N)N)C(=O)N[C@H](C(N)=O)C(C)C)CSCc2cccc(c2)CSC[C@H](NC(=O)[C@@H](N)CCSC)C(=O)N[C@@H](CCC(=O)O)C(=O)N[C@@H](CO)C(=O)N1C [Compound R2026, [mXylyl(2,6)]MCES-nMeI-CRV-NH2] (H-MCES[NMeI]CRV-NH2; linker 2-6 via mXylylene)
< 5.00 | CC(C)[C@H](NC(=O)C(CCc1ccc(N)nc1)NC(=O)[C@@H]1CSCc2cccc(c2)CSCCC(=O)N2CCC[C@H]2C(=O)N[C@@H](C2CCCCC2)C(=O)N1)C(N)=O (stereo partly drawn) [Compound R2203, [mXylyl(1,4)](des-NH2)C-P-Chg-C-2-amino-4-(6-aminopyridin-3-yl)butanoic acid-V-NH2] ([Mpa]P[Chg]C[X6]V-NH2; linker 1-4 via mXylylene)
6.32 | CC(C)(C)[C@H](NC(=O)[C@H](CCCNC(=N)N)NC(=O)[C@@H]1CSCc2cccc(c2)CSCCC(=O)N2CCC[C@H]2C(=O)C[C@@H](C2CCCCC2)C(=O)N1)C(N)=O [Compound R2247] ([Mpa][X9]CR[Tle]-NH2; linker 1-3 via mXylylene)
7.45 | Ac-CNYWSPWTEA-NH2 [Compound R2127, Ac-CNYWSPWTEA-NH2]
9.30 | CC[C@H](C)[C@@H]1NC(=O)[C@H](CO)NC(=O)[C@H](CCC(=O)O)NC(=O)[C@@H](NC(=O)[C@@H](N)CCSC)CSCc2cccc(c2)CSC[C@@H](C(=O)N[C@@H](CCCNC(=N)N)C(=O)N[C@H](C(=O)N[C@@H](CC(C)C)C(=O)N[C@@H](CCCNC(=N)N)C(=O)N[C@@H](Cc2ccc(O)cc2)C(=O)N[C@@H](CO)C(=O)N[C@@H](CCC(=O)O)C(N)=O)C(C)C)NC1=O [Compound R2004, [mXylyl(2,6)]MCESICRVLRYSE-NH2] (H-MCESICRVLRYSE-NH2; linker 2-6 via mXylylene)
7.23 | Ac-ANYWSPWTAA-NH2 [Compound R2145, Ac-ANYWSPWTAA-NH2]
